Reference: ChEMBL document CHEMBL6071196, “Semisynthetic Tetramate-Containing Fungal Metabolites with Activity against Trichomonas vaginalis and Mycoplasma genitalium” (ACS Med Chem Lett, 2024)
In brackets after ≈: the same amount, converted by molar mass. Activity calls are given as the source filed them. The rule behind the calls is not given here.

How the values were obtained:
[1] = system: Trichomonas vaginalis; experiment: Anti-trichomonal activity against Trichomonas vaginalis assessed as inhibition of parasite growth incubated for 18 hrs; format: functional, organism-based
[2] = system: Mycoplasma genitalium; experiment: Antibacterial activity against Mycoplasma genitalium G37C assessed as bacterial growth inhibition incubated for 7 days by phenol red reagent based microbroth dilution assay; format: functional; conditions: Mycoplasmoides genitalium, 168 h, time 7 day
[3] = Selectivity index, ratio of IC50 for cytotoxicity against african green monkey Vero cells incubated for 48 hrs by celltiter blue assay to EC50 for anti-trichomonal activity against Trichomonas vaginalis assessed as inhibition of parasite growth incubated for 18 hrs; format: toxicity, cell-based; conditions: read-out: Ratio IC50/EC50
[4] = Selectivity index, ratio of IC50 for cytotoxicity against african green monkey Vero cells incubated for 48 hrs by celltiter blue assay to MIC for antibacterial activity against Mycoplasma genitalium G37C assessed as bacterial growth inhibition incubated for 7 days by phenol red reagent based microbroth dilution assay; format: toxicity, cell-based; conditions: read-out: Selectivity Index
[5] = Selectivity index, ratio of IC50 for cytotoxicity against african green monkey Vero cells incubated for 48 hrs by celltiter blue assay to IC50 for antibacterial activity against Mycoplasma genitalium Sea-1 assessed as bacterial growth inhibition incubated for 30 mins by qPCR analysis; format: toxicity, cell-based; conditions: read-out: Ratio IC50
[6] = Selectivity index, ratio of IC50 for cytotoxicity against african green monkey Vero cells incubated for 48 hrs by celltiter blue assay to IC50 for antibacterial activity against Mycoplasma genitalium G37C assessed as bacterial growth inhibition incubated for 30 mins by qPCR analysis; format: toxicity, cell-based; conditions: read-out: Ratio IC50
[7] = system: Mycoplasma genitalium; experiment: Antibacterial activity against Mycoplasma genitalium G37C assessed as bacterial growth inhibition incubated for 30 mins by qPCR analysis; format: functional, organism-based; conditions: Mycoplasmoides genitalium, 0.5 h
[8] = system: Mycoplasma genitalium; experiment: Antibacterial activity against Mycoplasma genitalium Sea-1 assessed as bacterial growth inhibition incubated for 30 mins by qPCR analysis; format: functional, organism-based; conditions: Mycoplasmoides genitalium, Sea-1, 0.5 h
[9] = system: Mycoplasma genitalium; experiment: Antibacterial activity against Mycoplasma genitalium Sea-2 assessed as bacterial growth inhibition incubated for 30 mins by qPCR analysis; format: functional, organism-based; conditions: Mycoplasmoides genitalium, Sea-2, 0.5 h
[10] = Selectivity index, ratio of IC50 for cytotoxicity against african green monkey Vero cells incubated for 48 hrs by celltiter blue assay to IC50 for antibacterial activity against Mycoplasma genitalium Sea-2 assessed as bacterial growth inhibition incubated for 30 mins by qPCR analysis; format: toxicity, cell-based; conditions: read-out: Ratio IC50
[11] = system: Mycoplasma genitalium; experiment: Antibacterial activity against Mycoplasma genitalium G37C assessed as growth inhibition at 2 uM relative to control; format: functional; conditions: Mycoplasmoides genitalium
[12] = system: Mycoplasma genitalium; experiment: Antibacterial activity against Mycoplasma genitalium G37C assessed as growth inhibition at 3 uM measured after 1 month relative to control; format: functional, organism-based; conditions: Mycoplasmoides genitalium, time 1.0 months
[13] = system: Mycoplasma genitalium; experiment: Antibacterial activity against Mycoplasma genitalium G37C assessed as growth inhibition at 0.4 uM relative to control; format: functional; conditions: Mycoplasmoides genitalium
[14] = system: Mycoplasma genitalium; experiment: Antibacterial activity against Mycoplasma genitalium G37C assessed as growth inhibition at 0.6 uM measured after 1 month relative to control; format: functional, organism-based; conditions: Mycoplasmoides genitalium, time 1.0 months

| SMILES | EC50 [1] | MIC90 [2] | selectivity ratio at 48 h [3] | selectivity ratio at 48 h [4] | also measured |
| --- | --- | --- | --- | --- | --- |
| C/C=C/[C@@H]1C=C[C@@H]2C[C@H](C)CC[C@H]2[C@]1(C)/C(O)=C1\C(=O)[C@H](CO)N(C)C1=O | 3 µM | 0.3 µM (≈ 0.112 µg/mL) | 4.2 | 46.9 | – |
| C/C=C/C=C/[C@H]1C(C)=C[C@H]2C[C@@H](C)CC[C@@H]2[C@@]1(C)/C(O)=C1/C(=O)N[C@H](CO)C1=O | 0.8 µM | 1 µM (≈ 0.4 µg/mL) | 119 | 94.8 | – |
| CCCCC[C@H]1[C@@H](C)C[C@H]2C[C@@H](C)CC[C@@H]2[C@@]1(C)/C(O)=C1\C(=O)[C@@H](CO)N(C)C1=O | 2.1 µM | 0.5 µM (≈ 0.21 µg/mL) | > 16 | 64 | – |
| CCCCCC1=C(C)C[C@H]2C[C@@H](C)CC[C@@H]2[C@@]1(C)/C(O)=C1\C(=O)[C@@H](CO)N(C)C1=O | > 10 µM | 29.9 µM (≈ 12.5 µg/mL) | > 8 | 13.1 | – |
| CCCCC[C@H]1[C@H](C)C[C@H]2C[C@@H](C)CC[C@@H]2[C@@]1(C)/C(O)=C1\C(=O)[C@@H](CO)N(C)C1=O | 2.7 µM | 3.8 µM (≈ 1.59 µg/mL) | 72.6 | 51.6 | – |
| C/C=C/C=C/[C@H]1C(C)=C[C@H]2C[C@@H](C)CC[C@@H]2[C@@]1(C)/C(O)=C1\C(=O)[C@@H](COCc2cn(Cc3ccc(C(=O)O)cc3)nn2)N(C)C1=O | 2.2 µM | 19.9 µM (≈ 12.5 µg/mL) | 12.8 | 1.5 | – |
| C/C=C/[C@@H]1C=C[C@@H]2C[C@H](C)CC[C@H]2[C@]1(C)/C(O)=C1/C(=O)N[C@@H](CO)C1=O | 2.5 µM | 2.2 µM (≈ 0.791 µg/mL) | 35.9 | 40 | – |
| C/C=C/C=C/[C@H]1C(C)=C[C@H]2C[C@@H](C)CC[C@@H]2[C@@]1(C)/C(O)=C1\C(=O)[C@H](COCc2cn(CCc3ccc(O)cc3)nn2)N(C)C1=O | > 10 µM | 2.6 µM (≈ 1.6 µg/mL) | – | 29.7 | selectivity ratio at 48 h [5]: 96; selectivity ratio at 48 h [6]: 64; IC50 [7]: 1.2 µM; IC50 [8]: 0.8 µM; IC50 [9]: 1 µM; selectivity ratio at 48 h [10]: 77; inhibition at 2 µM [11]: 90%; inhibition [12]: inactive |
| C/C=C/C=C/[C@H]1C(C)=C[C@H]2C[C@@H](C)CC[C@@H]2[C@@]1(C)/C(O)=C1\C(=O)[C@@H](CO)N(C)C1=O | 1.8 µM | 0.4 µM (≈ 0.165 µg/mL) | 32.1 | 141 | inhibition at 0.4 µM [13]: 90%; inhibition [14]: inactive |
| C#CCOC[C@@H]1C(=O)/C(=C(/O)[C@@]2(C)[C@@H](/C=C/C=C/C[C@@H](C)O)C(C)=C[C@H]3C[C@@H](C)CC[C@@H]32)C(=O)N1C | 3.9 µM | 6.3 µM (≈ 3.12 µg/mL) | 24.3 | 15.1 | – |
| C/C=C/C=C/[C@H]1C(C)=C[C@H]2C[C@@H](C)CC[C@@H]2[C@@]1(C)/C(O)=C1\C(=O)[C@@H](COC)N(C)C1=O | > 10 µM | 3.7 µM (≈ 1.58 µg/mL) | – | 6.7 | – |
| C/C=C/C=C/[C@H]1C(C)=C[C@H]2C[C@@H](C)CC[C@@H]2[C@@]1(C)/C(O)=C1\C(=O)[C@@H](COCc2cn(CC3CCCCO3)nn2)N(C)C1=O (some centres not stated) | > 10 µM | 5.2 µM (≈ 3.08 µg/mL) | – | 8.1 | – |
| C/C=C/C=C/[C@H]1C(C)=C[C@H]2C[C@@H](C)CC[C@@H]2[C@@]1(C)/C(O)=C1\C(=O)[C@H](COCc2cn(CC3CCCC3)nn2)N(C)C1=O | > 10 µM | 5.4 µM (≈ 3.11 µg/mL) | – | 7.9 | – |
| CC1=C[C@H]2C[C@@H](C)CC[C@@H]2[C@@](C)(/C(O)=C2\C(=O)[C@H](COCc3cn(CC4CCCCO4)nn3)N(C)C2=O)[C@H]1/C=C/C=C/C[C@@H](C)O (some centres not stated) | – | – | 19.6 | – | – |
| CC1=C[C@H]2C[C@@H](C)CC[C@@H]2[C@@](C)(/C(O)=C2\C(=O)[C@@H](COCc3cn(CCO)nn3)N(C)C2=O)[C@H]1/C=C/C=C/C[C@@H](C)O | > 10 µM | 10.8 µM (≈ 6.29 µg/mL) | – | 6.5 | – |
| C/C=C/C=C/[C@H]1C(C)=C[C@H]2C[C@@H](C)CC[C@@H]2[C@@]1(C)/C(O)=C1\C(=O)[C@H](COCc2cn(CCO)nn2)N(C)C1=O | > 10 µM | 5.8 µM (≈ 3.12 µg/mL) | – | 9.7 | – |
| CCCCC[C@H]1C(C)=C[C@H]2C[C@@H](C)CC[C@@H]2[C@@]1(C)/C(O)=C1\C(=O)[C@@H](CO)N(C)C1=O | 0.71 µM | 3.8 µM (≈ 1.59 µg/mL) | > 170 | 32 | – |
| C/C=C/C=C/[C@H]1C(C)=C[C@H]2C[C@@H](C)CC[C@@H]2[C@@]1(C)/C(O)=C1\C(=O)[C@@H](COCC=C(C)C)N(C)C1=O | > 10 µM | 6.4 µM (≈ 3.08 µg/mL) | – | 8.8 | – |
| C#CCOC[C@@H]1C(=O)/C(=C(/O)[C@@]2(C)[C@@H](/C=C/C=C/C[C@@H](C)OCC#C)C(C)=C[C@H]3C[C@@H](C)CC[C@@H]32)C(=O)N1C | > 10 µM | 5.8 µM (≈ 3.1 µg/mL) | – | 14 | – |
| CC1=C[C@H]2C[C@@H](C)CC[C@@H]2[C@@](C)(/C(O)=C2\C(=O)[C@@H](CO)N(C)C2=O)[C@H]1/C=C/C=C/C[C@@H](C)O | 0.06 µM | 0.9 µM (≈ 0.412 µg/mL) | 315 | 23.8 | – |
| C/C=C/[C@@H]1C=C[C@@H]2C[C@H](C)CC[C@H]2[C@]1(C)/C(O)=C1\C(=O)[C@@H](CO)N(C)C1=O | > 10 µM | 2.1 µM (≈ 0.784 µg/mL) | – | 11.5 | – |
